Legend:
[1] = In vitro liver microsomal stability assay, rat; format: in vitro ADME; settings: for Remaining amount % at 60 min: Rat liver microsomes 0.5 mg/mL, NADPH; for microsomal CLint at 1 µM: read-out: CLint(mic)
Method: (§1) 1) Preparation of working solutions of test samples: The test samples were diluted with acetonitrile to 100 M.
(§2) 2) Preparation of a working solution of liver microsomes: liver microsomes were diluted with 100 mM phosphate-buffered saline to 0.56 mg/mL.
(§3) 3) Preparation of a working solution of reduced nicotinamide adenine dinucleotide (NADPH): A proper amount of NADPH was weighed out and diluted with phosphate-buffered saline to 20 mM, and an equal volume of a 60 mM MgCl2 solution was added.
(§4) 4) Preparation of a stop solution: Tolbutamide was diluted with acetonitrile to 20 ng/mL, serving as a stop solution containing an internal standard.
(§5) 1) Incubation anti-adsorption EP tubes were prepared and labeled with species, test/control sample, time points (0, 5, 10, 20, 30, 60 min, Blank60, and NCF60), etc.
(§6) 2) 2 L of test or control sample working solution, diluted with acetonitrile to 100 M, and 178 L of liver microsome working solution were added to each tube. For the Blank60 tube, 2 L of acetonitrile was added instead of a test sample. The tubes were pre-incubated in a 37° C. water bath for about 10 min, with each sample tested in triplicate.
(§7) 3) After the pre-incubation was complete, 20 L of NADPH working solution was added to each tube except for the 0 min and NCF60 tubes to start reactions, and 20 L of phosphate-buffered saline (containing 30 mM MgCl2) was added to the NCF60 tube. In the incubation system, the final concentrations of the test and control samples were 1 M, the final concentration of liver microsomes was 0.5 mg/mL, the final concentration of NADPH was 1 mM, and the final concentration of MgCl2 was 3 mM.
(§8) 4) For the 0 min sample, 600 L of stop solution was added before adding the NADPH working solution. After each sample was incubated for its respective time, 600 L of stop solution was added to stop the reaction.
(§9) 5) After the reaction was stopped, each sample was vortexed for 30 s and then centrifuged at 13,500 rpm for 10 min. 100 L of the supernatant was transferred to an EP tube, and 100 L Milli-Q water was added. The mixture was well mixed by vortexing and analyzed by LC-MS/MS.
(§10) 6) Testosterone and dextromethorphan were used as positive control samples under the same conditions to assess the stability and reliability of the system.
(§11) Parameters of the test samples, including their half-lives, intrinsic clearance rates in liver microsomes, and hepatic intrinsic clearance rates, were calculated based on the percentage of test sample remaining.

[2] = target: T1, α1β2γ2 GABA receptors (α1β2γ2-CHO-TRex stable cell strain) (Homo sapiens, UniProt P14867+P47870); assay: Whole-cell patch clamp, intrasynaptic functional activity (positive allosteric regulation of GABA-induced current); format: cell-based; settings: patch clamp -60 mV, GABA at EC10-20, α1β2γ2-CHO-TRex cells
T1 construct: expressed in transfected cells
T1 sequence (P14867 28-456): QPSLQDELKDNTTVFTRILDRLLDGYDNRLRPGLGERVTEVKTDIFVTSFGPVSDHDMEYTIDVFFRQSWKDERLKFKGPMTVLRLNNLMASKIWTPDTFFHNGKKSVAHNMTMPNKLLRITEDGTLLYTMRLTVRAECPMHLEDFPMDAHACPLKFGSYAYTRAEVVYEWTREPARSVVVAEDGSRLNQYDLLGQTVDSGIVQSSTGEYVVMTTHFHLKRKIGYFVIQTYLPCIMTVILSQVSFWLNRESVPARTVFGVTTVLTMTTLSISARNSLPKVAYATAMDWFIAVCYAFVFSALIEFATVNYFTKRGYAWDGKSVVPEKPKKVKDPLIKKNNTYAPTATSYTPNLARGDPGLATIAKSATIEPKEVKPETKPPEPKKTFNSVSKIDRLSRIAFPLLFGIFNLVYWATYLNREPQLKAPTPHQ
T1 sequence (P47870 25-512 limits assumed): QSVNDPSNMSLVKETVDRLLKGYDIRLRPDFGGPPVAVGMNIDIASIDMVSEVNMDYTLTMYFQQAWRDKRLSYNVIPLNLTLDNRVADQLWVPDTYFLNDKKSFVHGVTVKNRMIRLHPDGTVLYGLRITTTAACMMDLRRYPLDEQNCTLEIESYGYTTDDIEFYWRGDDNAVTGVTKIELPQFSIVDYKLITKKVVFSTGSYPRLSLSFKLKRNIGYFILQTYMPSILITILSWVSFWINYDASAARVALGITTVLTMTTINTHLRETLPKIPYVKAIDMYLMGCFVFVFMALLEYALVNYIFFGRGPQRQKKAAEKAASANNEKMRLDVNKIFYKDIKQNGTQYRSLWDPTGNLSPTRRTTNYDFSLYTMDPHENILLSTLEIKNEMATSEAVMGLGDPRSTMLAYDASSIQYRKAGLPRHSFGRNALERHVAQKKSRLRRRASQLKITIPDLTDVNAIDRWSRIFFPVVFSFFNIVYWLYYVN
T1 sequence (P18507 40-475 partner): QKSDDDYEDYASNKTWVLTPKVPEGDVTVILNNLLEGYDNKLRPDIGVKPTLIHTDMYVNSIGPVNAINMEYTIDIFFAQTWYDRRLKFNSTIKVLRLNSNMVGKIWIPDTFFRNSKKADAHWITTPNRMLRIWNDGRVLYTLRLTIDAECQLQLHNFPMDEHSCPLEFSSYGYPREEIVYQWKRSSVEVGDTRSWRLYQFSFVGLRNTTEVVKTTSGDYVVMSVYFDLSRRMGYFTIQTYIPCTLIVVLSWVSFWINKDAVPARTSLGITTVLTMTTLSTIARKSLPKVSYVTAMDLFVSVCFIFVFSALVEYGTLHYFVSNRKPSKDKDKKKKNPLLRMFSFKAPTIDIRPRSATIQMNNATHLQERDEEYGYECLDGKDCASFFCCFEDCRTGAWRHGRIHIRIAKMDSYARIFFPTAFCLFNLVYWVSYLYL
Method: (§12) The α4β3δ-HEK-FlpIn-TRex stable cell strain was cultured in DMEM+10% FBS complete culture medium, with the selective antibiotics being 10 μg/mL Blasticidin, 100 µg/mL Zeocin, 100 µg/mL Hygromycin, and 0.2 μg/mL Puromycin. The α1β2γ2-CHO-TRex stable cell strain was cultured in DMEM/F12+10% FBS complete culture medium, with the selective antibiotics being 10 μg/mL Blasticidin, 100 μg/mL Zeocin, 300 μg/mL Hygromycin, and […] Puromycin.
(§13) The day before the patch clamp experiment, cells were seeded onto 12 mm polylysine-coated coverslips and then cultured in 35 mm culture dishes, and tetracycline ([…]) was added to induce the expression of GABA receptors. The extracellular fluid had the following composition (in mM): 140 NaCl, 3 KCl, 1.5 MgCl2, 2 CaCl2, 10 HEPES, and 10 Glucose. After thorough mixing, NaOH was added to adjust the pH to 7.4, and sucrose was added to adjust the osmotic pressure to 300-320 mOsm. The fluid was stored at 4° C. The electrode internal solution had the following composition (in mM): 145 KCl, 1 MgCl2, 5 EGTA, 10 HEPES, and 5 MgATP. After thorough mixing, KOH was added to adjust the pH to 7.3, and sucrose was added to adjust the osmotic pressure to 290-300 mOsm. The solution was filtered through a […] before use.
(§14) Whole-cell patch clamp recording was mainly employed in this experiment. The membrane potential was clamped at −60 mV, and receptors were activated using GABA at an EC10-20 concentration ([…]). The test compounds were dissolved in 0.1% DMSO, and perfusion was performed for 30 s prior to GABA stimulation. Finally, the positive allosteric regulating effects of the test compounds on α1β2γ2 or α4β3δ were determined.
(§15) The experimental result for each concentration was expressed as a fold increase in the GABA-induced current caused by the compound. […] At least 5 concentrations are tested to obtain a complete EC50 curve and EC50 values. All experiments were repeated on no less than 3 cells, and data processing was completed using GraphPad prism software. The dose-response curves were fitted using the Hill equation, and the half-maximal activating concentration EC50 and Emax were finally obtained.

[3] = In vitro liver microsomal stability assay, human; format: in vitro ADME; settings: for Remaining amount % at 60 min: Human liver microsomes 0.5 mg/mL, NADPH; for microsomal CLint at 1 µM: read-out: CLint(mic)
Method: as §1, §2, §3, §4, §5, §6, §7, §8, §9, §10, §11

[4] = target: T2, α4β3δ GABA receptors (α4β3δ-HEK-FlpIn-TRex stable cell strain) (Homo sapiens, UniProt P28472+P48169); assay: Whole-cell patch clamp, extrasynaptic functional activity (positive allosteric regulation of GABA-induced current); format: cell-based; settings: patch clamp -60 mV, GABA at EC10-20, α4β3δ-HEK-FlpIn-TRex cells
T2 construct: expressed in transfected cells
T2 sequence (P48169 36-554): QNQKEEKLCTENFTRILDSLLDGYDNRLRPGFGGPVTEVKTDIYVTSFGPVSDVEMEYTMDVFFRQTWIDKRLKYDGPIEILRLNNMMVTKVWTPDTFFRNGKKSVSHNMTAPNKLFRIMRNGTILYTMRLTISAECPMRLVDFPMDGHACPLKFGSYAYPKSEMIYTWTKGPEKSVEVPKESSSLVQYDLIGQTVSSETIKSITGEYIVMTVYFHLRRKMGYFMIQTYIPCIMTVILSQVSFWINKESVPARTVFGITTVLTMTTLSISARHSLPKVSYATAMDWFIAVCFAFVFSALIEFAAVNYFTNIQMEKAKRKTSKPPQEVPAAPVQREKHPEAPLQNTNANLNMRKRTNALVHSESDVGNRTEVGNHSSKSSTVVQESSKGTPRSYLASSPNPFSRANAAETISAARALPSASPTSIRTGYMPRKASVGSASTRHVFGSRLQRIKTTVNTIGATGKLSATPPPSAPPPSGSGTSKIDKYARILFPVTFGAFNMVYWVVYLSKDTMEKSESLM
T2 sequence (P28472 26-473): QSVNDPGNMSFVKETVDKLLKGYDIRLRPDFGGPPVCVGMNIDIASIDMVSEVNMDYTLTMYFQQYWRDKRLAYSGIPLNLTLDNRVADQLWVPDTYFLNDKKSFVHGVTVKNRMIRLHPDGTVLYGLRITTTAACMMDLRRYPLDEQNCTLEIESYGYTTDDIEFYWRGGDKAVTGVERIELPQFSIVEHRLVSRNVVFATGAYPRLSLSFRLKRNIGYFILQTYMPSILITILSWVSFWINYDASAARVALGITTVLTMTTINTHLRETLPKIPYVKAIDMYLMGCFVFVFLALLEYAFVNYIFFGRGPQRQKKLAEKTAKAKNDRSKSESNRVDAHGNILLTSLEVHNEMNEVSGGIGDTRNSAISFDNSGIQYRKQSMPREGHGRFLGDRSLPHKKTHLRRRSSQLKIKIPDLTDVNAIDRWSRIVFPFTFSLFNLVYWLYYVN
T2 sequence (O14764 25-452 partner): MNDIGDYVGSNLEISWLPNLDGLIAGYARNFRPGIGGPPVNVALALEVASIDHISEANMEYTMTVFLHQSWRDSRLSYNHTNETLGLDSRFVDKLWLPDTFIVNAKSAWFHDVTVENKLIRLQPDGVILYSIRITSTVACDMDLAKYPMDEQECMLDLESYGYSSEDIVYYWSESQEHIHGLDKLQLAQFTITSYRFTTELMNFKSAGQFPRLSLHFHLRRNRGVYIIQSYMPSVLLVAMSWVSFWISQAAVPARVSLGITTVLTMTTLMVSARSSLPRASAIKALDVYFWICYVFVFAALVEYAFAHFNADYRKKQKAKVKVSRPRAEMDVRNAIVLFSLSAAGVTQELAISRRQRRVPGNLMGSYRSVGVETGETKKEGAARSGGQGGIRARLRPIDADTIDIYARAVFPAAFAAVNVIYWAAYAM
Method: as §12, §13, §14, §15

SMILES	CLint scaled at 1 µM ([1]; Rat liver microsomes)	half-life at 1 µM ([1]; Rat liver microsomes)	Remaining amount % at 60 min [1]	microsomal CLint at 1 µM ([1]; Rat liver microsomes)	EC50 [2]	Emax [2]	CLint scaled at 1 µM ([3]; Human liver microsomes)	half-life at 1 µM ([3]; Human liver microsomes)	Remaining amount % at 60 min [3]	microsomal CLint at 1 µM ([3]; Human liver microsomes)	EC50 [4]	Emax [4]	T1/2 ([1]; Rat liver microsomes)	T1/2 ([3]; Human liver microsomes)
C[C@@]1(O)CC[C@H]2[C@H](CC[C@@H]3[C@@H]2CC[C@]2(C)[C@@H](C(=O)Cn4cnn(-c5ccc(F)cc5F)c4=O)CC[C@@H]32)C1 [Compound 25]	6.24 L/h/kg	24.1 min	16.2%	58 µL/min/mg	0.784 µM	692%	1.5 L/h/kg	49.5 min	42%	28 µL/min/mg	0.089 µM	542%	–	–
C[C@@]1(O)CC[C@H]2[C@H](CC[C@@H]3[C@@H]2CC[C@]2(C)[C@@H](C(=O)Cn4cnn(-c5cc(Cl)ccn5)c4=O)CC[C@@H]32)C1 [Compound 26]	7.2 L/h/kg	–	12.7%	67 µL/min/mg	–	624%	1.08 L/h/kg	–	53.7%	20 µL/min/mg	–	589%	20.8 min	68.6 min
C[C@@]1(O)CC[C@H]2[C@H](CC[C@@H]3[C@@H]2CC[C@]2(C)[C@@H](C(=O)Cn4cnn(-c5cccc(F)c5F)c4=O)CC[C@@H]32)C1 [Compound 27]	7.32 L/h/kg	20.4 min	14.60%	68 µL/min/mg	0.126 µM	445%	0.84 L/h/kg	91.2 min	64.13%	15 µL/min/mg	0.042 µM	526%	–	–
C[C@@]1(O)CC[C@H]2[C@H](CC[C@@H]3[C@@H]2CC[C@]2(C)[C@@H](C(=O)Cn4cnn(-c5cc(F)cc(F)c5)c4=O)CC[C@@H]32)C1 [Compound 28]	2.58 L/h/kg	57.8 min	48.8%	24 µL/min/mg	0.154 µM	–	1.26 L/h/kg	58.2 min	61.6%	24 µL/min/mg	0.035 µM	441%	–	–
C[C@@]1(O)CC[C@H]2[C@H](CC[C@@H]3[C@@H]2CC[C@]2(C)[C@@H](C(=O)Cn4cnn(C5CCCC5)c4=O)CC[C@@H]32)C1 [Compound 29]	3.84 L/h/kg	38.7 min	36.8%	36 µL/min/mg	0.192 µM	691%	3.6 L/h/kg	20.7 min	45.8%	67 µL/min/mg	0.203 µM	830%	–	–
C[C@@]1(O)CC[C@H]2[C@H](CC[C@@H]3[C@@H]2CC[C@]2(C)[C@@H](C(=O)Cn4cnn(C5CCCCC5)c4=O)CC[C@@H]32)C1 [Compound 30]	19.7 L/h/kg	7.6 min	7.4%	183 µL/min/mg	0.585 µM	873%	5.46 L/h/kg	17.5 min	9.5%	79 µL/min/mg	0.237 µM	685%	–	–

Reference: patent publication US20250368678A1, “19-NOR-C3,3-DISUBSTITUTED C21-AZACYCLO-S[…] AND METHOD FOR USING SAME” (SHANDONG LUYE PHARMACEUTICAL CO., LTD., priority 2022, published 2025)
